Laboratory results: patent US20150290029A1, “Delivery Systems for Agents to treat Ocular Discomfort” (priority 2014, published 2015)
Read-outs that look alike come from different tables or passages of the source.

Assays:
[1] = target: T1, TRPM8 receptor (Homo sapiens, UniProt Q7Z2W7); test: Receptor assay, fluorescence (Relative Fluorescence Units), ChanTest; type: cell-based; conditions: FIG. 4
T1 construct: ChanTest Corporation
Experimental: FIG. 4 is a graph of fluorescence (Relative Fluourescence Units; % Maximum) of test compounds, as a function of the logarithm of the concentration of the test compound (μM). The compounds tested were 2-4 (circle), 2-5 (square), 2-6 (inverted triangle), 2-7 (diamond), and 2-8 (star), representing the 1 [di-sec-butyl-phosphinoyl]-butane, pentane, hexane, heptane, and octane analogs, respectively. The receptor assays were conducted by ChanTest Corporation, Cleveland, Ohio 44128. […] The 95% confidence intervals of 2-5 to 2-8 overlap.
(§1) FIG. 5. illustrates the activity of 2-5 on cells transfected with the TRPA1 and TRPV1. TRPA1 and TRPV1 receptors mediate nociception: that is, stimulation of these receptors results in irritation and pain. Capsaicin and mustard oil are the positive control substances for TRPV1 and TRPA1, respectively.

[2] = tested on: ocular surface; test: Periocular spray of 2-5 over the closed eye in normal subjects and dry eyes syndrome patients; type: in vivo, human
Experimental: Sensory discomfort of the eye is a conspicuous symptom in patients diagnosed with “dry eyes disease.” The study described below was conducted by Prof. K. C. Yoon of the Department of Ophthalmology, Chonnam National University Medical School, Gwangju, South Korea. Prof. Yoon is an acknowledged expert on the investigation of dry eyes disease and has published extensively on this subject [e.g. Yoon, K.-C. et al. Application of umbilical cord serum eyedrops for the treatment of dry eye syndrome. Cornea 25, 268-72 (2006). Yoon, K.-C. et al. Comparison of autologous serum and umbilical cord serum eye drops for dry eye syndrome. Am. J. Ophthalmol. 144, 86-92 (2007).] The methods used in these two publications were also used in the experiments described below. This report was presented as an Oral Communication entitled “Effect of a periocular spray of a TRPM8 agonist on the ocular surface” at the 110th Meeting of the Korean Ophthalmological Society, Bexco, Busan, Korea on Apr. 13, 2014.
2-5 was prepared as a 2 mg/mL solution in distilled water and administered as a spray [sprayed volume of ˜0.1 mL] over the closed right eye of test subjects. There were 20 subjects in the normal group [9 males/11 females] and 17 subjects in the group with defined “dry eyes syndrome” [7 males/10 females]. Exclusion criteria for patient selection was age of <18 years, systemic medication that may affect tear secretion, previous punctal plug insertion, history of contact lenses use, previous ocular surgery or trauma, pregnancy or lactation, and ocular or systemic disease. The average age of the subjects was 29 years, and both groups had normal values for visual acuity, intraocular pressure, and corneal sensitivity [Cochet-Bonnet esthesiometry, measured with a microfilament]. […] The score for keratoepitheliopathy [National Eye Institute system] was 0.1±0.3 and 2.5±1.7, in the normal vs the “dry eyes syndrome” group.
Subjective symptoms were graded on a numerical score. A visual analog scale score [0 to 10 units] was used for grading the degree of soothing and cooling sensation on the ocular surface. For symptoms of the dry eyes syndrome, a scale of zero to four was used, with zero representing no symptoms and four representing very severe symptoms that caused discomfort and interfered with normal activities. These methods have been described in detail elsewhere and are incorporated by reference [Yoon, K.-C. et al. Application of umbilical cord serum eyedrops for the treatment of dry eye syndrome. Cornea 25, 268-72 (2006). Yoon, K.-C. et al. Comparison of autologous serum and umbilical cord serum eye drops for dry eye syndrome. Am. J. Ophthalmol. 144, 86-92 (2007)].
The onset was less than 3 min and reached maximal effect in the first 10 min. The mean duration of cooling was 42±8 min and all cooling sensations disappeared by 1 hr. For patients previously diagnosed with “dry eyes” disease there was a reduction of symptom score from 1.8 to 0.5, a highly significant event [P<0.001]. […] However, the magnitude of the effect was not considered clinically significant and may have been due to increased sensitivity of the dry eyes patients to foreign solutions applied to the ocular surface. The keratoepitheliopathy score was not affected by treatment.
The mechanical sensitivity of the cornea, measured with the Cochet-Bonnet esthesiometer, was not affected in all patients, in the 1.5 hr test period with […], spaced 30 min apart. This is an important observation from the viewpoint of safety in use, because numbness of the corneal surface will increase risks of eye injury from foreign materials.

[3] = target: T2, TRPA1 (Homo sapiens, UniProt O75762); test: Activity on TRPA1 transfected cells; type: cell-based; conditions: FIG. 5; mustard oil positive control
T2 construct: expressed in transfected cells
T2 sequence (O75762 whole entry, species assumed): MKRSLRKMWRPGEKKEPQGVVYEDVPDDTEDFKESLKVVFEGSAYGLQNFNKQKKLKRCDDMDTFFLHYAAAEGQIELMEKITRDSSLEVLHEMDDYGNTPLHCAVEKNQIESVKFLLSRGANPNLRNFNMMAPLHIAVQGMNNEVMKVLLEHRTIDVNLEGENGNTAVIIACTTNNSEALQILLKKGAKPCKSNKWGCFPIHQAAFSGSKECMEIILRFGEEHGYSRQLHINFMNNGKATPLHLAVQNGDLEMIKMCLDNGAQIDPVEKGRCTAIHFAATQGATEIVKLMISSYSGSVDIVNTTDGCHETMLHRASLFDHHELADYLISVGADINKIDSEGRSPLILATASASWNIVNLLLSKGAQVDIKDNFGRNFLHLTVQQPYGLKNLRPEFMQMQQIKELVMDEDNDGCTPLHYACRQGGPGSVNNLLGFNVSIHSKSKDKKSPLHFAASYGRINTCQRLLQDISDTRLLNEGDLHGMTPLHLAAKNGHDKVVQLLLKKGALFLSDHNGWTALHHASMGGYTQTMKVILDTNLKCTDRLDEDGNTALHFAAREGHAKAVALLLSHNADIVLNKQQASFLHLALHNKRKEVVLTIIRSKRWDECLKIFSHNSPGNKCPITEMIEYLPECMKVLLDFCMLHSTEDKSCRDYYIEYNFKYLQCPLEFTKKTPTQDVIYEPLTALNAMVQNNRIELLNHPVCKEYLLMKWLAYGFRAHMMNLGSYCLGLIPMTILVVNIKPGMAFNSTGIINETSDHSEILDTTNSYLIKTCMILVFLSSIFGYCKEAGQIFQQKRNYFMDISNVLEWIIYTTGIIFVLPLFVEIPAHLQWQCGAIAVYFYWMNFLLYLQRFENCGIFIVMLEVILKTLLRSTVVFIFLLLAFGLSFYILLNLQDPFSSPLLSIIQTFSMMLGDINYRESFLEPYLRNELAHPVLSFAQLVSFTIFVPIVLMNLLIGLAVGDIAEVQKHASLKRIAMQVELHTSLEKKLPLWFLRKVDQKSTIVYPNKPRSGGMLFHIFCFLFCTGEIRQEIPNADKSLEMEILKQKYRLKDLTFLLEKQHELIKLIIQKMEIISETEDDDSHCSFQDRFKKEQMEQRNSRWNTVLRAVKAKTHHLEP
Source text: as §1

[4] = tested on: skin of the eyelids; test: Irritation when applied in vivo to the skin of the eyelids; conditions: compared among analogs 2-4 to 2-8
[5] = target: T3, TRPV1 (Homo sapiens, UniProt Q8NER1); test: Activity on TRPV1 transfected cells; type: cell-based; conditions: FIG. 5; capsaicin positive control
T3 construct: expressed in transfected cells
T3 sequence (Q8NER1 whole entry, species assumed): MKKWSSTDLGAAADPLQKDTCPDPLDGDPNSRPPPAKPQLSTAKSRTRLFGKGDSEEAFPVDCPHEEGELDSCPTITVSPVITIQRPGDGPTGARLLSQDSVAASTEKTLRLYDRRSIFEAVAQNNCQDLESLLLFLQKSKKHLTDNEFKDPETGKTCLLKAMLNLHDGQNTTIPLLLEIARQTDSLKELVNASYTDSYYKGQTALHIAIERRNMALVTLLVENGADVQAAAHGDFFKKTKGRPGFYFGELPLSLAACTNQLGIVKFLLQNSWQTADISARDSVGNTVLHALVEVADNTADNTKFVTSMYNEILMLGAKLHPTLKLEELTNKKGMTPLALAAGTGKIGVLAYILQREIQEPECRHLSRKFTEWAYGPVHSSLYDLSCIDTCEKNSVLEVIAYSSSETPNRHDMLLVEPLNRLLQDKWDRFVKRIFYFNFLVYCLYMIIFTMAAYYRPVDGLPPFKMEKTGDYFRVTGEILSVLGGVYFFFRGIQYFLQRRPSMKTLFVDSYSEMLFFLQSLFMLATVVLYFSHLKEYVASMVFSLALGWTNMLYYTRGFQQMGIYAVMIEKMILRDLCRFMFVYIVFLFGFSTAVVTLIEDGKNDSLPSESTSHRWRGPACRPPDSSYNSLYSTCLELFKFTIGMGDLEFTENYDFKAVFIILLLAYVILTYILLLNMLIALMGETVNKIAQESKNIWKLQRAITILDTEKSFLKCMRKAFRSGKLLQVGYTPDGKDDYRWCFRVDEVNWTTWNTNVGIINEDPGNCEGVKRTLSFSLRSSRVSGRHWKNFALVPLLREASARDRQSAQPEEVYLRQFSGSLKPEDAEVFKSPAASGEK
Source text: as §1

[6] = tested on: human ocular surface; conditions: for Irritancy, delivery unit: wiped across the orbital skin
Experimental: Subjects received different ethanol-water concentrations either in eye drops or via the delivery unit. Subjects were asked to report irritation, stinging, burning sensations, or pain in the 2 to 5 min after application. The intensity of the subjective eye sensation was rated as 0, 1, 2 or 3 with: 0 as no effect; 1 as slight; 2 as a clear-cut effect; and 3 as severe.

[7] = dry eyes group, first 30 min, not considered clinically significant
[8] = ethanol 5% wt/vol in water, scale 0-3
[9] = ethanol 10% wt/vol in water, scale 0-3

T1 sequence (Q7Z2W7 whole entry): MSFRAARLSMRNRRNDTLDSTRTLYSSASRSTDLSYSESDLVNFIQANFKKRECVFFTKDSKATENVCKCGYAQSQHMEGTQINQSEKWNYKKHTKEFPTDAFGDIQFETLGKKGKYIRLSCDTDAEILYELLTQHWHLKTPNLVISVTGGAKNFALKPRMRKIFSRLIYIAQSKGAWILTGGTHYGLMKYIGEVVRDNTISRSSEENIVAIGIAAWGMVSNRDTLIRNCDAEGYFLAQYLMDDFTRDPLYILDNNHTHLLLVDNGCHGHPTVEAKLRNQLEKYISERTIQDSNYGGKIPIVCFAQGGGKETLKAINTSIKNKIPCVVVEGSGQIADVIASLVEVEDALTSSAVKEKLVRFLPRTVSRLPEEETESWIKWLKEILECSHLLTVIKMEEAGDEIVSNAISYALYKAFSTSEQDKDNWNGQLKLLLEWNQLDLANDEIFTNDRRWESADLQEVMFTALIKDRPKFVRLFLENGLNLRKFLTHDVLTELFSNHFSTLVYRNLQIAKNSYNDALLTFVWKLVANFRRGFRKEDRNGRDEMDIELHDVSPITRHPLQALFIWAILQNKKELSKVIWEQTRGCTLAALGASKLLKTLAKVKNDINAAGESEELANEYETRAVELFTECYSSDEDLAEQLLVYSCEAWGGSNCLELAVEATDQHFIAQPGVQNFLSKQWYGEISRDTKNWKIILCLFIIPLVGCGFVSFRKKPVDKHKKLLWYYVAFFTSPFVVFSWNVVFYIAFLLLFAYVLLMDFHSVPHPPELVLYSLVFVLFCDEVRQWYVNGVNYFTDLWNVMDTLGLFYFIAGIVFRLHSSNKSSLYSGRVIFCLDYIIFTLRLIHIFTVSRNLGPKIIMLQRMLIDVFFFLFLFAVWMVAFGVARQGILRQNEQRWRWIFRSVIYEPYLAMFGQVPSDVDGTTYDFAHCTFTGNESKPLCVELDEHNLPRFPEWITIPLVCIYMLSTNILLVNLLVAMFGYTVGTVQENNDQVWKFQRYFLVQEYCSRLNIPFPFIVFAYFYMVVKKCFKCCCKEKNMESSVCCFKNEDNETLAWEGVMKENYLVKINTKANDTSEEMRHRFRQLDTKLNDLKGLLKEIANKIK

CCCCCCCCP(=O)(C(C)CC)C(C)CC (centres unmarked) [2-8, 1 [di-sec-butyl-phosphinoyl]-octane]
Potency relative to 1-menthol in the same assay [1]: 3.0 ×

CCCCCP(=O)(C(C)CC)C(C)CC (centres unmarked) [2-5, 1-di(sec-butyl) phosphinoyl-pentane]
Soothing and cooling sensations on the ocular surface after blinking ([2]; 2 mg/mL in distilled water, spray ~0.1 mL over closed eye): all subjects felt soothing and cooling sensations | Mean duration of cooling ([2]; 2 mg/mL spray over closed eye): 42 ± 8 min | Onset of cooling ([2]; 2 mg/mL spray over closed eye): less than 3 min | Time by which all cooling sensations disappeared ([2]; 2 mg/mL spray over closed eye): ≤ 1 h | Time of maximal effect ([2]; 2 mg/mL spray over closed eye): ≤ 10 min | Keratoepitheliopathy score ([2]; after treatment): not affected | Mechanical sensitivity of the cornea (Cochet-Bonnet esthesiometer) ([2]; all patients, 1.5 hr test period, 5 points of measurement): not affected | Tear Film BUT [2, 7]: slightly elevated | Tear secretion rates [2, 7]: slightly elevated | Symptom score after treatment ([2]; dry eyes patients, scale zero to four, reduced from 1.8, P<0.001): 0.5 | Tear Film BUT ([2]; normal group): not significantly affected | Tear secretion rates ([2]; normal group): not significantly affected | Potency relative to 1-menthol in the same assay [1]: 2.2 × | Stimulation of TRPA1 [3]: does not stimulate | Irritation when applied to the skin of the eyelids [4]: minimal irritation | Stimulation of TRPV1 [5]: does not stimulate

CCO [Ethanol]
Sensation upon delivery ([6]; 5% ethanol solution as an eye drop): clearly aversive as an eye drop, producing stinging and pain upon delivery | Sensation upon delivery ([6]; 20% applied to the eye with a wipe): mild burning sensations in two subjects | Irritancy, eye drops ([6]; ethanol 2.5% wt/vol in water, scale 0-3 (0 no effect, 3 strongly irritating), N = 8 experiments): 0 | Irritancy, delivery unit ([6]; ethanol 2.5% wt/vol in water, scale 0-3): 0 | Irritancy, eye drops [6, 8]: +2 | Irritancy, delivery unit [6, 8]: 0 | Irritancy, eye drops [6, 9]: +3 | Irritancy, delivery unit [6, 9]: 0 | Irritancy, delivery unit ([6]; ethanol 20% wt/vol in water, scale 0-3): +1 | Change in decreased sensitivity to irritation, swab method versus eye drops ([6]; ethanol/water): ~4 fold

CCCCCCP(=O)(C(C)CC)C(C)CC (centres unmarked) [2-6, 1 [di-sec-butyl-phosphinoyl]-hexane]
Potency relative to 1-menthol in the same assay [1]: 4-9 ×

CCCCP(=O)(C(C)CC)C(C)CC (centres unmarked) [2-4, 1 [di-sec-butyl-phosphinoyl]-butane]
Potency relative to 1-menthol in the same assay [1]: 0.3 ×
